Measurements as given in US12234230B2, “Substituted benzyl-triazole compounds for Cbl-b inhibition, and further uses thereof” (Nurix Therapeutics, Inc., priority 2019, dated 2025).

Key:
[1] = target: Cbl-b (Homo sapiens (Human), UniProt Q13191); assay: Cbl-b displacement assay (Cbl-b inhibition assay), Biological Example 1; format: binding; details: 0.125 nM Cbl-b final concentration (Low); read-out: Cbl-b activity IC50 (Low)
Method: The ability of candidate compounds to displace a known inhibitor and thereby inhibit Cbl-b activity was measured by monitoring the interaction of Cbl-b with a fluorophore-labeled probe in the presence of the candidate compound.
Following the one hour incubation, the plates were read for TR-FRET signal at 520/620 nm using an Envision plate reader (Perkin Elmer).

[2] = test system: primary human total T-cells; assay: Primary human total T-cell activation (IL-2 secretion, CD25 surface staining), Biological Example 2; details: fold change over baseline; for CD25 staining CD3/CD28 0.3 μM / IL-2 secretion CD3/CD28 0.3 μM: 0.3 μM inhibitor; for CD25 staining CD3/CD28 0.3 μM / IL-2 secretion CD3/CD28 0.3 μM / CD25 staining CD3/CD28 1 μM / IL-2 secretion CD3/CD28 1 μM: anti-CD3 and anti-CD28 co-stimulation; for CD25 staining CD3/CD28 1 μM / IL-2 secretion CD3/CD28 1 μM / CD25 staining CD3 1 μM / IL-2 secretion CD3 1 μM: 1 μM inhibitor; for CD25 staining CD3 1 μM / IL-2 secretion CD3 1 μM / CD25 staining CD3 3 μM / IL-2 secretion CD3 3 μM: anti-CD3 stimulation alone; for CD25 staining CD3 3 μM / IL-2 secretion CD3 3 μM: 3 μM inhibitor

Sequence of Cbl-b (Q13191 36-427): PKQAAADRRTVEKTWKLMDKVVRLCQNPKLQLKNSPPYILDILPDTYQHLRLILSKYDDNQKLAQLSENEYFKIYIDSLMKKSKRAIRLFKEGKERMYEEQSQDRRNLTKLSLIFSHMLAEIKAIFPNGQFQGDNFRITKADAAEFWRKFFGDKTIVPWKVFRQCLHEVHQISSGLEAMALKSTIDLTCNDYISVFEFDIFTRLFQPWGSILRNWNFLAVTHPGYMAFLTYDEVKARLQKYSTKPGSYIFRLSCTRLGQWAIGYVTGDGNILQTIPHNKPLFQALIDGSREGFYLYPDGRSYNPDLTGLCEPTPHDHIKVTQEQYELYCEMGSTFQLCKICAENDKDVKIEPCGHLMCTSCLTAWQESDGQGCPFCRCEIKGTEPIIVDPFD

Row | SMILES | IC50 [1] [nM] | CD25 staining CD3/CD28 0.3 μM [2] | IL-2 secretion CD3/CD28 0.3 μM [2] | CD25 staining CD3/CD28 1 μM [2] | IL-2 secretion CD3/CD28 1 μM [2] | CD25 staining CD3 1 μM [2] | IL-2 secretion CD3 1 μM [2] | CD25 staining CD3 3 μM [2] | IL-2 secretion CD3 3 μM [2]
1 | C[C@@H]1CN(Cc2cc3c(c(C4CC4)n2)CN(c2cccc([C@]4(c5nncn5C)C[C@@H](C)C4)c2)C3=O)CCO1 [Compound 29, 4-cyclopropyl-2-(3-((1s,3S)-3-methyl-1-(4-methyl-4H-1,2,4-triazol-3-yl)cyclobutyl)phenyl)-6-(((R)-2-methylmorpholino)methyl)-2,3-dihydro-1H-pyrrolo[3,4-c]pyridin-1-one] | 5 to 20 | B (B indicates 1.24-1.39 fold) | C (C indicates <20 fold) | B (B indicates 1.24-1.39 fold) | B (B indicates 20-35 fold) | A (A indicates >2.5 fold) | A (A indicates >1.1 fold) | B (B indicates 1.5-2.5 fold) | B (B indicates 0.70-1.1 fold)
2 | C[C@@H]1CN(Cc2cc3c(c(C(F)(F)F)c2)CN(c2cccc([C@]4(c5nncn5C)C[C@@H](O)C4)c2)C3=O)CCC1(F)F [Compound 31, 6-(((R)-4,4-difluoro-3-methylpiperidin-1-yl)methyl)-2-(3-((1s,3S)-3-hydroxy-1-(4-methyl-4H-1,2,4-triazol-3-yl)cyclobutyl)phenyl)-4-(trifluoromethyl)isoindolin-1-one] | 5 to 20 | – | C (C indicates <20 fold) | – | C (C indicates <20 fold) | C (C indicates <1.5 fold) | C (C indicates <0.70 fold) | B (B indicates 1.5-2.5 fold) | C (C indicates <0.70 fold)
3 | C[C@H]1CCCN(Cc2cc3c(c(C(F)(F)F)c2)CN(c2cccc([C@]4(c5nncn5C)C[C@@H](O)C4)c2)C3=O)C1 [Compound 32, 2-(3-((1s,3R)-3-hydroxy-1-(4-methyl-4H-1,2,4-triazol-3-yl)cyclobutyl)phenyl)-6-(((S)-3-methylpiperidin-1-yl)methyl)-4-(trifluoromethyl)isoindolin-1-one] | 5 to 20 | – | B (B indicates 20-35 fold) | – | A (A indicates >35 fold) | A (A indicates >2.5 fold) | A (A indicates >1.1 fold) | A (A indicates >2.5 fold) | A (A indicates >1.1 fold)
4 | CO[C@H]1C[C@@](c2cccc(N3Cc4c(cc(CN5CCC(F)(F)[C@H](C)C5)cc4C(F)(F)F)C3=O)c2)(c2nncn2C)C1 [Compound 33, 6-(((R)-4,4-difluoro-3-methylpiperidin-1-yl)methyl)-2-(3-((1s,3S)-3-methoxy-1-(4-methyl-4H-1,2,4-triazol-3-yl)cyclobutyl)phenyl)-4-(trifluoromethyl)isoindolin-1-one] | 5 to 20 | B (B indicates 1.24-1.39 fold) | C (C indicates <20 fold) | – | B (B indicates 20-35 fold) | A (A indicates >2.5 fold) | A (A indicates >1.1 fold) | A (A indicates >2.5 fold) | A (A indicates >1.1 fold)
5 | C[C@@H]1CN(Cc2cc3c(c(C(F)(F)F)c2)CN(c2cccc([C@]4(c5nncn5C)C[C@H](O)C4)c2)C3=O)CCC1(F)F [Compound 34, 6-(((R)-4,4-difluoro-3-methylpiperidin-1-yl)methyl)-2-(3-(trans-3-hydroxy-1-(4-methyl-4H-1,2,4-triazol-3-yl)cyclobutyl)phenyl)-4-(trifluoromethyl)isoindolin-1-one] | 5 to 20 | B (B indicates 1.24-1.39 fold) | C (C indicates <20 fold) | B (B indicates 1.24-1.39 fold) | A (A indicates >35 fold) | B (B indicates 1.5-2.5 fold) | A (A indicates >1.1 fold) | B (B indicates 1.5-2.5 fold) | A (A indicates >1.1 fold)
6 | C[C@H]1CCCN(Cc2cc3c(c(C(F)(F)F)c2)CN(c2cccc([C@]4(c5nncn5C)C[C@H](O)C4)c2)C3=O)C1 [Compound 35, 2-(3-((1r,3S)-3-hydroxy-1-(4-methyl-4H-1,2,4-triazol-3-yl)cyclobutyl)phenyl)-6-(((S)-3-methylpiperidin-1-yl)methyl)-4-(trifluoromethyl)isoindolin-1-one] | < 5 | B (B indicates 1.24-1.39 fold) | B (B indicates 20-35 fold) | B (B indicates 1.24-1.39 fold) | B (B indicates 20-35 fold) | A (A indicates >2.5 fold) | B (B indicates 0.70-1.1 fold) | A (A indicates >2.5 fold) | B (B indicates 0.70-1.1 fold)
7 | CO[C@H]1C[C@](c2cccc(N3Cc4c(cc(CN5CCC(F)(F)[C@H](C)C5)cc4C(F)(F)F)C3=O)c2)(c2nncn2C)C1 [Compound 36, 6-(((R)-4,4-difluoro-3-methylpiperidin-1-yl)methyl)-2-(3-(trans-3-methoxy-1-(4-methyl-4H-1,2,4-triazol-3-yl)cyclobutyl)phenyl)-4-(trifluoromethyl)isoindolin-1-one] | < 5 | – | C (C indicates <20 fold) | – | C (C indicates <20 fold) | C (C indicates <1.5 fold) | C (C indicates <0.70 fold) | C (C indicates <1.5 fold) | C (C indicates <0.70 fold)
8 | CO[C@H]1C[C@](c2cccc(N3Cc4c(cc(CN5CCC[C@H](C)C5)cc4C(F)(F)F)C3=O)c2)(c2nncn2C)C1 [Compound 37, 2-(3-((1r,3S)-3-methoxy-1-(4-methyl-4H-1,2,4-triazol-3-yl)cyclobutyl)phenyl)-6-(((S)-3-methylpiperidin-1-yl)methyl)-4-(trifluoromethyl)isoindolin-1-one] | < 5 | B (B indicates 1.24-1.39 fold) | B (B indicates 20-35 fold) | – | B (B indicates 20-35 fold) | A (A indicates >2.5 fold) | A (A indicates >1.1 fold) | A (A indicates >2.5 fold) | B (B indicates 0.70-1.1 fold)

Continued, in another order:

Row | IC50 [1] [nM] | SMILES | CD25 staining CD3/CD28 0.3 μM [2] | IL-2 secretion CD3/CD28 0.3 μM [2] | CD25 staining CD3/CD28 1 μM [2] | IL-2 secretion CD3/CD28 1 μM [2] | CD25 staining CD3 1 μM [2] | IL-2 secretion CD3 1 μM [2] | CD25 staining CD3 3 μM [2] | IL-2 secretion CD3 3 μM [2]
9 | < 5 | C[C@H]1CCCN(Cc2cc3c(c(C(F)(F)F)c2)CN(c2cccc([C@]4(c5nncn5C)C[C@H](C#N)C4)c2)C3=O)C1 [Compound 39, (1S,3r)-3-(4-methyl-4H-1,2,4-triazol-3-yl)-3-(3-(6-(((S)-3-methylpiperidin-1-yl)methyl)-1-oxo-4-(trifluoromethyl)isoindolin-2-yl)phenyl)cyclobutane-1-carbonitrile] | B (B indicates 1.24-1.39 fold) | A (A indicates >35 fold) | B (B indicates 1.24-1.39 fold) | A (A indicates >35 fold) | A (A indicates >2.5 fold) | A (A indicates >1.1 fold) | A (A indicates >2.5 fold) | A (A indicates >1.1 fold)
10 | < 5 | C[C@@H]1CN(Cc2cc3c(c(C(F)(F)F)c2)CN(c2cccc([C@]4(c5nncn5C)C[C@H](C#N)C4)c2)C3=O)CCC1(F)F [Compound 40, (1R,3r)-3-(3-(6-(((R)-4,4-difluoro-3-methylpiperidin-1-yl)methyl)-1-oxo-4-(trifluoromethyl)isoindolin-2-yl)phenyl)-3-(4-methyl-4H-1,2,4-triazol-3-yl)cyclobutane-1-carbonitrile] | – | B (B indicates 20-35 fold) | – | A (A indicates >35 fold) | A (A indicates >2.5 fold) | B (B indicates 0.70-1.1 fold) | A (A indicates >2.5 fold) | B (B indicates 0.70-1.1 fold)
11 | < 5 | C[C@@H]1CN(Cc2cc3c(c(C(F)(F)F)c2)CN(c2cccc(C4(c5nncn5C)CC5(CC5)C4)c2)C3=O)CCC1(F)F [Compound 41, 6-[[(3R)-4,4-difluoro-3-methyl-1-piperidyl]methyl]-2-[3-[5-(4-methyl-1,2,4-triazol-3-yl)spiro[2.3]hexan-5-yl]phenyl]-4-(trifluoromethyl)isoindolin-1-one] | – | B (B indicates 20-35 fold) | – | A (A indicates >35 fold) | A (A indicates >2.5 fold) | A (A indicates >1.1 fold) | A (A indicates >2.5 fold) | A (A indicates >1.1 fold)
12 | < 5 | C[C@@H]1CN(Cc2cc3c(c(C(F)(F)F)c2)CN(c2cccc(C4(c5nncn5C)CC5(CC5)C4)c2)C3=O)CCO1 [Compound 43, (R)-2-(3-(5-(4-methyl-4H-1,2,4-triazol-3-yl)spiro[2.3]hexan-5-yl)phenyl)-6-((2-methylmorpholino)methyl)-4-(trifluoromethyl)isoindolin-1-one] | B (B indicates 1.24-1.39 fold) | B (B indicates 20-35 fold) | B (B indicates 1.24-1.39 fold) | A (A indicates >35 fold) | A (A indicates >2.5 fold) | A (A indicates >1.1 fold) | A (A indicates >2.5 fold) | A (A indicates >1.1 fold)
